{"source": "patent US4611066A", "about": "“Bryostatins 4 to 8” (Arizona State University, priority 1984, dated 1986)", "key": {"P 388 (PS) mouse tumor": {"tested_on": "P 388 (PS) mouse tumor", "assay": "P 388 (PS) mouse tumor test, life extension in vivo", "text": "The dried methylene chloride extracts (derived from the shipping solution and from extraction of the chopped animals) were further separated by taking small portions and subjecting each to solvent partitioning beginning with methanol:water (9:1)/hexane (4 times). […] The aqueous mthanol layers were further diluted with water to a ratio of 8:2 and were extracted repeatedly with carbon tetrachloride (9 times). The carbon tetrachloride extracts were dried and assayed for antitumor activity.\n(§1) The isolation and purification methods chosen can be monitored at each step by performing in vitro and/or in vivo antitumor tests as described by R. I. Geran, N. H. Greenberg, M. M. MacDonald, A. M. Schumacher and B. S. Abbot in Cancer Chemother. Rep. Part 3, Vol. 3 (2): 1-103 (1972); and by Schmidt, J. M.; Pettit, G. R. in Experimentia, 34: 659-660 (1978). Such tests include the determination of the concentration of active material rquired to inhibit the growth of tumor cells in culture, (e.g., the concentration required to inhibit growth by 50 percent or the ED50) and of the dose of active material required to prolong the life of mice bearing transplanted tumors."}, "[1]": {"tested_on": "murine P388 lymphocytic leukemia (PS cell line)", "assay": "inhibition of growth of PS tumor cells in culture (ED50)", "format": "cell-based", "conditions": "for IC50: Mus musculus", "text": "as §1"}}, "data": [{"smiles": "CCCC(=O)OC1/C(=C/C(=O)OC)CC2C[C@H]([C@@H](C)O)OC(=O)C[C@H](O)C[C@@H]3C[C@H](OC(=O)CC(C)C)C(C)(C)[C@](O)(C[C@@H]4CC(=CC(=O)OC)CC(/C=C/C(C)(C)C1(O)O2)O4)O3", "note": "(some centres unmarked) [Bryostatin 4]", "values": [{"measurement": "increase in life extension", "setting": "P 388 (PS) mouse tumor; at 46 μg/kg", "result": 62, "unit": "%"}]}, {"smiles": "COC(=O)C=C1CC2/C=C/C(C)(C)C3(O)OC(C/C(=C\\C(=O)OC)C3OC(C)=O)C[C@H]([C@@H](C)O)OC(=O)C[C@H](O)C[C@@H]3C[C@H](OC(=O)CC(C)C)C(C)(C)[C@](O)(C[C@H](C1)O2)O3", "note": "(some centres unmarked) [Bryostatin 5]", "values": [{"measurement": "IC50", "setting": "[1]; P388, PS cell line", "result": "0.26 to 1.3", "unit": "ng/mL"}, {"measurement": "in vivo life extension", "setting": "P 388 (PS) mouse tumor; at 185 μg/kg", "result": 88, "unit": "%"}]}, {"smiles": "CCCC(=O)O[C@H]1C[C@H]2C[C@@H](O)CC(=O)O[C@@H]([C@@H](C)O)C[C@@H]3C/C(=C\\C(=O)OC)[C@H](OC(C)=O)[C@@](O)(O3)C(C)(C)/C=C/[C@H]3C/C(=C\\C(=O)OC)C[C@@H](C[C@](O)(O2)C1(C)C)O3", "note": "[Bryostatin 6]", "values": [{"measurement": "ED50", "setting": "[1]; PS cell line", "result": 3, "unit": "ng/mL"}, {"measurement": "in vivo life extension", "setting": "P 388 (PS) mouse tumor; at 185 μg/kg", "result": 82, "unit": "%"}]}, {"smiles": "COC(=O)C=C1CC2/C=C/C(C)(C)C3(O)OC(C/C(=C\\C(=O)OC)C3OC(C)=O)C[C@H]([C@@H](C)O)OC(=O)C[C@H](O)C[C@@H]3C[C@H](OC(C)=O)C(C)(C)[C@](O)(C[C@H](C1)O2)O3", "note": "(some centres unmarked) [Bryostatin 7]", "values": [{"measurement": "IC50", "setting": "[1]; P388, PS cell line", "result": 0.026, "unit": "ng/mL"}, {"measurement": "in vivo life extension", "setting": "P 388 (PS) mouse tumor; at 92 μg/kg", "result": 77, "unit": "%"}]}, {"smiles": "CCCC(=O)OC1/C(=C/C(=O)OC)CC2C[C@H]([C@@H](C)O)OC(=O)C[C@H](O)C[C@@H]3C[C@H](OC(=O)CCC)C(C)(C)[C@](O)(C[C@@H]4CC(=CC(=O)OC)CC(/C=C/C(C)(C)C1(O)O2)O4)O3", "note": "(some centres unmarked) [Bryostatin 8]", "values": [{"measurement": "IC50", "setting": "[1]; murine P388 lymphocytic leukemia assay (PS cell line), unit inferred", "result": 1.3, "unit": "ng/mL"}]}]}
